The results in this text go back to US8815828B2, “Therapeutic combinations for use in neoplasia” (University of Florida Research Foundation, Inc., priority 2008, dated 2014).

Data set [1] concerns MDA-MB468 and MDA-MB-231 human breast cancer cell lines. As to the kind of experiment: Cytotoxicity by clonogenic assay (FIG. 4 legend), MDA-MB468 and MDA-MB-231 stated jointly. Particulars: MDA-MB468 and MDA-MB-231 cell lines, one value for both; read-out: IC50, agent alone. The data set is classed as cell-based. As for the experimental part: After 48 hours, drugs were withdrawn and allowed to grow in fresh medium for determination of cytotoxicity by clonogenic assay. Data presented are the mean±SE of three different estimations. […] Data presented are the mean+/−SE of three different estimations.

Data set [2] relates to T47D and MCF7 human breast cancer cell lines. As to the kind of experiment: Cytotoxicity by clonogenic assay (FIG. 3 legend), T47D and MCF7 stated jointly. In kind it is cell-based. Conditions: one value for both, read-out: IC50, agent alone.
In data set [3] the test system is MCF7, T47D, MDA-MB-231 and MDA-MB-468 human breast cancer cell lines. The experiment in a line: Clonogenic assay (Example 5, FIG. 8), four breast cancer cell lines stated jointly. In kind it is cell-based. Particulars: one value for all cell lines of FIG. 8, read-out: IC50, agent alone. As for the experimental part: (§1) After 48 hours, drugs were withdrawn and allowed to grow in fresh medium for determination of cytotoxicity by clonogenic assay. The data presented are the mean±SE of three different estimations.
(§2) To test this hypothesis, the IC50 of TMZ in four human breast cancer cell lines was determined using a clonogenic assay (Vachai et al., Nat. Proto. 3: 1122-1116, 2006). The cell lines used were MCF7, T47D (both ER/PR/HER2-positive), MDA-MB-231 and MDA-MB-468 (both triple-negative).

For data set [4], the system named is T47D breast cancer cells. As to the kind of experiment: Sulforhodamine B (SRB) colorimetric cytotoxicity assay, T47D. The data set is classed as cell-based, human. Conditions: for IC50: read-out: IC50 (cytotoxicity), agent alone. As for the experimental part:
Data are the mean±SE of three different estimations.
The developed color was measured at 564 nm.

Data set [5] concerns MCF7 breast cancer cells. The experiment in a line: Sulforhodamine B (SRB) colorimetric cytotoxicity assay, MCF7. Particulars: for IC50: read-out: IC50 (cytotoxicity), agent alone. As for the experimental part: After 48 hours, cells were harvested and processed for cytotoxicity determination by clonogenic assay. Data presented are the mean±SE of three different estimations.
The IC50 (the drug concentration needed to prevent cell proliferation by 50%) of TMZ was determined using a sulforhodamine B (SRB) colorimetric assay. This assay relies on the ability of SRB to bind the protein components of cells that have been fixed to tissue culture plates by trichloroacetic acid (TCA) (Vachai V, Kirtikara K. Sulforhodamine B colorimetric assay for cytotoxicity screening. Nat. Proto. 3: 1122-1116, 2006). MCF7 and T47D cells were seeded in 96-well plates at a density of 500 cells per well. After 24 hours, while the cells were in the log phase of cell growth, the cells were treated with different concentrations of TMZ (1-1000 μM) for 48 hours. […] The cells were subsequently fixed with 10% (w/v) of tricholoroacetic acid, washed with double distilled water, and stained with 0.4% SRB. Cells were then repeatedly washed with 1% (v/v) of acetic acid to remove the unbound dye. The protein bound dye was dissolved in 10 mM Tris-base solution (pH 10.5). The developed color was measured at 564 nm. The percentage of cell survival as a function of drug concentration was then plotted to determine the IC50 value.

Data set [6] deals with MCF7 cells. As to the kind of experiment: Clonogenic assay (Example 5, FIG. 8), MCF7. The data set is classed as cell-based. Conditions: Homo sapiens, 48 hours, then fresh medium, read-out: IC50 of TMZ alone or in the named combination. As for the experimental part:
as §1, §2

Data set [7] concerns T47D cells. As to the kind of experiment: Clonogenic assay (Example 5, FIG. 8), T47D. Conditions: Homo sapiens, 48 hours, then fresh medium, read-out: IC50 of TMZ alone or in the named combination. The data set is classed as cell-based. As for the experimental part:
as §1, §2

Data set [8] relates to MDA-MB-231 breast cancer cells. As to the kind of experiment: Sulforhodamine B (SRB) colorimetric cytotoxicity assay, MDA-MB-231. Particulars: for IC50: read-out: IC50 (cytotoxicity), agent alone.
The test system of data set [9] is MDA-MB-468 cells. As to the kind of experiment: Clonogenic assay (Example 5, FIG. 8), MDA-MB-468. In kind it is cell-based. Conditions: Homo sapiens, 48 hours, then fresh medium, read-out: IC50 of TMZ alone or in the named combination. As for the experimental part:
as §1, §2

The subject of data set [10] is MDA-MB-231 cells. As to the kind of experiment: Clonogenic assay (Example 5, FIG. 8), MDA-MB-231. The data set is classed as cell-based. Particulars: Homo sapiens, 48 hours, then fresh medium, read-out: IC50 of TMZ alone or in the named combination. As for the experimental part: as §1, §2
The test system of data set [11] is MDA-MB-468 breast cancer cells. The experiment in a line: Sulforhodamine B (SRB) colorimetric cytotoxicity assay, MDA-MB-468. Particulars: for IC50: read-out: IC50 (cytotoxicity), agent alone.
In data set [12] the target is Pol-β (Homo sapiens, UniProt P06746). The experiment in a line: In vitro base excision repair (BER) assay with 32P-U-DNA substrate. In kind it is biochemical. Particulars: dose-dependent manner (FIG. 2B). From the text:
The reaction conditions are described below. […] Data are representative of three different experiments.
An assay was developed that permits in vitro analysis of BER as described in FIG. 2A.

Read-outs that look alike come from different tables or passages of the source.

One may read the IC50 as the concentration at which inhibition is half-maximal. In the case of `Cc1cc(S(=O)(=O)Nc2n[nH]c(Nc3ccc(Cl)cc3)n2)c(S)cc1Cl` [NSC-666715, Benzosulfonamide, 4-chloro-N-[5-[(4-chlorophenyl)amino]1H-1,2,4-triazol-3-yl]-2-mercapto-5-methyl-(9Cl)], the values for the IC50 in data set [1], in data set [2] and in [3] were approximately 100 µM, approximately 100 µM and 100 µM, respectively.
Turning to `Cn1nnc2c(C(N)=O)ncn2c1=O` [TMZ, Temozolomide], the IC50 in data set [4] (Homo sapiens, T47D, 48 h) was 303 µM; in [5] (Homo sapiens, MCF7, 48 h) it was 303 µM; in data set [6], 331 µM; in data set [7] it was 334 µM; in [8] (Homo sapiens, MDA-MB-231, 48 h), 344 µM; in data set [9], 298 µM. Also, the half-maximal inhibitory concentration (IC50) in data set [10] worked out at 334 µM; in [11] (Homo sapiens, MDA-MB-468, 48 h), 316 µM. In addition, the “reduction of the IC50 of TMZ” value was “about 4 fold” in [4] (T47D cells, TMZ with BG (2.5 μM)); “about 1.1 fold” in [4] (T47D cells, TMZ with NSC-666715 (15 μM)); “about 8 fold” in data set [4] (T47D cells, TMZ with both BG (2.5 μM) and NSC-666715 (15 μM)); “about 4 fold” in [5] (MCF7 cells, TMZ with BG (2.5 μM)); “about 1.5 fold” in data set [5] (MCF7 cells, TMZ with NSC-666715 (15 μM)); “about 7 fold” in [5] (MCF7 cells, TMZ with both BG (2.5 μM) and NSC-666715 (15 μM)). For the same compound, the “reduction of the IC50 of TMZ” value is “about 2.8 fold” in data set [8] (MDA-MB-231 cells, TMZ with BG (2.5 μM)); “about 1.5 fold” in [8] (MDA-MB-231 cells, TMZ with NSC-666715 (15 μM)); “about 6.6 fold” in data set [8] (MDA-MB-231 cells, TMZ with both BG (2.5 μM) and NSC-666715 (15 μM)); “about 6 fold” in data set [11] (MDA-MB-468 cells, TMZ with BG (2.5 μM)); “about 0.1 fold” in data set [11] (MDA-MB-468 cells, TMZ with NSC-666715 (15 μM)); “about 15 fold” in data set [11] (MDA-MB-468 cells, TMZ with both BG (2.5 μM) and NSC-666715 (15 μM)). For the same compound, in data set [5] (NSC-666715 and O6-benzylguanine in combination with temozolomide, cell line not stated at this place (figure matches MCF7)), the “reduction in the IC50 of TMZ” value was found to be 7 fold.
`Nc1nc(OCc2ccccc2)c2nc[nH]c2n1` [BG, O^6-benzylguanine]: the IC50 is approximately 75 µM in data set [1]; approximately 149 µM in [4] (T47D cells, 48 hours); approximately 91 µM in [5] (MCF7 cells, 48 hours); approximately 75 µM in data set [2]; approximately 77 µM in data set [8] (MDA-MB-231 cells, 48 hours); approximately 100 µM in data set [11] (MDA-MB-468 cells, 48 hours).
Consider `COc1cc(/C=C/C(=O)CC(=O)/C=C/c2ccc(O)c(OC)c2)ccc1O` [curcumin, (1E,6E)-1,7-bis(4-hydroxy-3-methoxy-phenyl)hepta-1,6-diene-3,5-dione], for which, in data set [3] (Homo sapiens), the half-inhibitory concentration (IC50) amounted to 5 µM.
`Nc1cc(I)n([C@H]2C[C@H](O)[C@@H](COP(=O)(O)O)O2)c(=O)n1` [NSC-124854, 5′-cytidylic acid, 2′-deoxy-6-iodo-(9CI)]: the strand-displacement synthesis result in data set [12] (32P-U-DNA substrate, in the presence of Fen-1) is reported as “blocked”. In data set [12] (32P-U-DNA substrate), the “Pol-β-mediated 1-nt incorporation” value is listed as “blocked”. The “complete repair of 32P-U-DNA by the SN-BER pathway” value in data set [12] (with DNA ligase I) is “blocked”. Also, the “complete repair of 32P-U-DNA by the LP-BER pathway” value in data set [12] (with Fen-1 and DNA ligase I) is “blocked”.
